Series [1] deals with T1, Protein cereblon/Androgen receptor (Homo sapiens, UniProt P10275+Q96SW2). Description: PROTAC activity at CRBN/AR in human 22Rv1 cells assessed as induction of AR degradation at 0.01 uM incubated for 24 hrs by Western blot analysis relative to control. Type of series: cell-based.
Target sequence in this assay (Q96SW2 whole entry, looked up, one chain of several): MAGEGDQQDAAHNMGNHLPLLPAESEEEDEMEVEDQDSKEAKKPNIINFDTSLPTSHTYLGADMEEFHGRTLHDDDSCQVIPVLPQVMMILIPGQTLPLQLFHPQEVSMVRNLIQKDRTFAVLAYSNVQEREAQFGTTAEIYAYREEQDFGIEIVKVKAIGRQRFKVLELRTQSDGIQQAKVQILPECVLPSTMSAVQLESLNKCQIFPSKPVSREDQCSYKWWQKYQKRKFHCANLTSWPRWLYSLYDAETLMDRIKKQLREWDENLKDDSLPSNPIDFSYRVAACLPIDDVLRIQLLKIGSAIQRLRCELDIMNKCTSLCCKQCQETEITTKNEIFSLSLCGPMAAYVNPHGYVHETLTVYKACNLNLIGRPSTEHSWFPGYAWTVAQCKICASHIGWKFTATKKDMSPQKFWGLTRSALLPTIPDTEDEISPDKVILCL
The target of series [2] is T1, Protein cereblon/Androgen receptor. Description: PROTAC activity at CRBN/AR in human 22Rv1 cells assessed as induction of AR degradation at 20 nM incubated for 2 hrs by Western blot analysis (reference value: 0 %). Type of series: cell-based. For orientation: Immunoblotting shows a protein as a band on a membrane.
Target sequence in this assay (Q96SW2 whole entry, looked up, one chain of several): as above
Series [3] has as its system Protein cereblon/Androgen receptor (Homo sapiens), P10275+Q96SW2 [UNDEFINED MUTATION]. The series can be described thus: PROTAC activity at CRBN/Androgen receptor splice variant 7 in human 22Rv1 cells assessed as induction of AR-V7 degradation at 20 nM incubated for 6 hrs by Western blot analysis (reference value: 0%). Type of series: cell-based.
Series [4] has the same test system. The series can be described thus: PROTAC activity at CRBN/Androgen receptor splice variant 7 in human 22Rv1 cells assessed as induction of AR-V7 degradation at 20 nM incubated for 12 hrs by Western blot analysis (reference value: 0%). The format is cell-based.
Series [5] has as its target T2, Protein cereblon/Eukaryotic peptide chain release factor GTP-binding subunit ERF3A (Homo sapiens, UniProt Q96SW2+P15170). The series can be described thus: Molecular glue activity at CRBN/GSPT1 in human 22Rv1 cells assessed as induction of GSPT1 degradation at 20 nM incubated for 24 hrs by Western blot analysis (reference value: 0 %). The format is cell-based.
The target of series [6] is T1, Protein cereblon/Androgen receptor. The series can be described thus: PROTAC activity at CRBN/AR in human 22Rv1 cells assessed as induction of AR degradation incubated for 24 hrs by Western blot analysis. Type of series: cell-based.
The target is the same in series [7]. Description: PROTAC activity at CRBN/AR in human 22Rv1 cells assessed as induction of AR degradation by measuring maximal efficacy incubated for 24 hrs by Western blot analysis relative to control. Type of series: cell-based.
Target sequence in this assay (Q96SW2 whole entry, looked up, one chain of several): as above
The test system of series [8] is CWR22R. Description: Effect on GSPT1 mRNA expression in human 22Rv1 cells at 1 to 10 nM incubated for 24 hrs by RT-PCR analysis. The format is functional, cell-based. As to conditions: dose 1-10 nM.
Series [9] has as its system Protein cereblon/Androgen receptor (Homo sapiens), P10275+Q96SW2 [UNDEFINED MUTATION]. The series can be described thus: PROTAC activity at CRBN/Androgen receptor splice variant 7 in human 22Rv1 cells assessed as induction of AR-V7 degradation at 50 nM preincubated with MG132 followed by compound addition and measured after 12 hrs by Western blot analysis. Type of series: cell-based.

Series [10] has as its target T1, Protein cereblon/Androgen receptor. The series can be described thus: PROTAC activity at CRBN/AR in human VCaP cells assessed as induction of AR degradation at 50 nM preincubated with MLN4924 followed by compound addition and measured after 12 hrs by Western blot analysis. Type of series: cell-based.
Target sequence in this assay (Q96SW2 whole entry, looked up, one chain of several): as above
Series [11] concerns the target T2, Protein cereblon/Eukaryotic peptide chain release factor GTP-binding subunit ERF3A. The series can be described thus: Molecular glue activity at CRBN/GSPT1 in human VCaP cells assessed as induction of GSPT1 degradation at 50 nM preincubated with MLN4924 followed by compound addition and measured after 12 hrs by Western blot analysis. The format is cell-based.

The target of series [12] is Protein cereblon/Sal-like protein 4 (Homo sapiens) (UniProt Q96SW2+Q9UJQ4). Description: Molecular glue activity at CRBN/SALL4 in human 22Rv1 cells assessed as induction of SALL4 degradation at 1 uM incubated for 6 hrs by Western blot analysis. The format is cell-based.
Sequence of Protein cereblon/Sal-like protein 4 (Homo sapiens) (Q96SW2 whole entry, looked up): as the sequence (Q96SW2 whole entry, looked up, one chain of several) above
Sequence of Protein cereblon/Sal-like protein 4 (Homo sapiens) (Q9UJQ4 whole entry, looked up): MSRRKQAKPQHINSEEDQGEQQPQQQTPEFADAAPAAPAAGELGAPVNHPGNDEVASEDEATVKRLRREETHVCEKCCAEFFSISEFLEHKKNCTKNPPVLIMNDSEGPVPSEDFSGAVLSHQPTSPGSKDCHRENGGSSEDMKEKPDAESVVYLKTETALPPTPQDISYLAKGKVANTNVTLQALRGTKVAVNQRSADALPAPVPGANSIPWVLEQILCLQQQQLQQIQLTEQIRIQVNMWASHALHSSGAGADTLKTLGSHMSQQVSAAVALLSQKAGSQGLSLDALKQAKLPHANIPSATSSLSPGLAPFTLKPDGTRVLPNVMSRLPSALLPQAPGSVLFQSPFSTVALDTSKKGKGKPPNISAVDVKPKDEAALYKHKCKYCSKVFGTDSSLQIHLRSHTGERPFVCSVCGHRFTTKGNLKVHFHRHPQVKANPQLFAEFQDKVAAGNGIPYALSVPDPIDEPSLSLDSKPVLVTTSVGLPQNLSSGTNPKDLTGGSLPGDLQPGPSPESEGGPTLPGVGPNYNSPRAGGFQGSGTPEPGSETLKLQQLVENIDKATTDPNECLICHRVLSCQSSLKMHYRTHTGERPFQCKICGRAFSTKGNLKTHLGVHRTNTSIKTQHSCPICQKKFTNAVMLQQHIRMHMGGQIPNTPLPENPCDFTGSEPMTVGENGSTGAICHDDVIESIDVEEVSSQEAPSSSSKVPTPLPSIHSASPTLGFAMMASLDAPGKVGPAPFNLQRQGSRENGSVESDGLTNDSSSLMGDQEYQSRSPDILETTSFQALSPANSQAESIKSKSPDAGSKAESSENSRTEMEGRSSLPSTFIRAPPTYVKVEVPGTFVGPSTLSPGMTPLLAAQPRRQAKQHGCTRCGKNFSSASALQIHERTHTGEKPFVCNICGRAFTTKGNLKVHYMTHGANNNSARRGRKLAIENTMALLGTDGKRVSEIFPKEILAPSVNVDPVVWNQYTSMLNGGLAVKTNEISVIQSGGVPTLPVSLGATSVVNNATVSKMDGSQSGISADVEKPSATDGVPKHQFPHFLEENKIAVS
The target of series [13] is Protein cereblon/Zinc finger protein Helios (Homo sapiens) (UniProt Q96SW2+Q9UKS7). The series can be described thus: Molecular glue activity at CRBN/IKZF2 in human 22Rv1 cells assessed as induction of IKZF2 degradation at 3 uM incubated for 6 hrs by Western blot analysis. Type of series: cell-based.
Sequence of Protein cereblon/Zinc finger protein Helios (Homo sapiens) (Q96SW2 whole entry, looked up): as the sequence (Q96SW2 whole entry, looked up, one chain of several) above
Sequence of Protein cereblon/Zinc finger protein Helios (Homo sapiens) (Q9UKS7 whole entry, looked up): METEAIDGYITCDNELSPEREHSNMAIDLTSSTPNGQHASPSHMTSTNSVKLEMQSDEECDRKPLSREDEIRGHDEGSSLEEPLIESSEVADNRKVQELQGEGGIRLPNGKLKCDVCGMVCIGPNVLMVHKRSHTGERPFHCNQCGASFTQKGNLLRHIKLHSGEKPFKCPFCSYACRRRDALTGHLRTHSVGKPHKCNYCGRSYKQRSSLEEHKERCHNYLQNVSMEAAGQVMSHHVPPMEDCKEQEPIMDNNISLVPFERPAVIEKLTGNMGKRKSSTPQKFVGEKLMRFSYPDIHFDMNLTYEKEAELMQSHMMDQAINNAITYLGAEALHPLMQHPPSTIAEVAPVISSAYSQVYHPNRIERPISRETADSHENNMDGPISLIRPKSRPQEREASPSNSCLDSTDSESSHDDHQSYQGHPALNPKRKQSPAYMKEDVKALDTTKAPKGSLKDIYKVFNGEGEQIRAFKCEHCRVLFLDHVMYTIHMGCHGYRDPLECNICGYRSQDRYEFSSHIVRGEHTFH
Series [14] is described as follows: Selectivity ratio of IC50 for antiproliferative activity against AR-independent human DU-145 cells assessed as cell growth inhibition to IC50 for antiproliferative activity against AR-dependent human LNCaP cells assessed as cell growth inhibition. The format is functional.
Series [15] deals with T1, Protein cereblon/Androgen receptor. The series can be described thus: PROTAC activity at CRBN/AR in human LNCaP cells assessed as decrease in FKBP51 protein level incubated for 24 hrs by Western blot analysis. The note with it: dose 1-100 nM. Type of series: cell-based.
Target sequence in this assay (Q96SW2 whole entry, looked up, one chain of several): as the sequence (Q96SW2 whole entry, looked up, one chain of several) above
The target of series [16] is T3, Androgen receptor (Homo sapiens, UniProt P10275).
T3 sequence (P10275 whole entry): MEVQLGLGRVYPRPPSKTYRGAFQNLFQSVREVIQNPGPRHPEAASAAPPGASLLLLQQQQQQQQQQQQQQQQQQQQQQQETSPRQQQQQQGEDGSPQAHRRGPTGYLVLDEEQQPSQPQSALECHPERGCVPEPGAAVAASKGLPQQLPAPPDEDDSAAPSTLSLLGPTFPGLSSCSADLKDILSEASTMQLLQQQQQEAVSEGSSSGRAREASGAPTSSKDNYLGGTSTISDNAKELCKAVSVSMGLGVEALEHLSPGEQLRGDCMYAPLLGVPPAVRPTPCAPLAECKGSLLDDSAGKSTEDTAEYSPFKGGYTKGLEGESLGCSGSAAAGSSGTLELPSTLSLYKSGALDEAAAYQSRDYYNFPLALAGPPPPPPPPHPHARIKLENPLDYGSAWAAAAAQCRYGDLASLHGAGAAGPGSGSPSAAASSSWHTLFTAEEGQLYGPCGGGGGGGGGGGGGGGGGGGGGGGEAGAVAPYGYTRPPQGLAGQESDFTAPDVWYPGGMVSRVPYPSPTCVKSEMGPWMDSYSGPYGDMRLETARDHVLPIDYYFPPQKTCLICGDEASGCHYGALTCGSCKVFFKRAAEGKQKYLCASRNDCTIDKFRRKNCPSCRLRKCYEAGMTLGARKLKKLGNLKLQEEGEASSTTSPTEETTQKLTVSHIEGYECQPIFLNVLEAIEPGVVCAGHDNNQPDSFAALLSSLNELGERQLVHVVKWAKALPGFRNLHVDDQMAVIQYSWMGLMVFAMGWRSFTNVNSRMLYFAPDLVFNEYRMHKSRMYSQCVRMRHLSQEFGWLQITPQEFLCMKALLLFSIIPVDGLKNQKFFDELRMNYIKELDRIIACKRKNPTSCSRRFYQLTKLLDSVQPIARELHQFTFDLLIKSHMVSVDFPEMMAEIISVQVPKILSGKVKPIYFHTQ
The series can be described thus: Inhibition of wildtype AR (unknown origin) transcriptional activity transfected in HEK293T cells co-transfected with PSA-luciferase reporter and pRL-TK assessed as reduction in PSA-luciferase activity incubated for 24 hrs by luminescence based microplate reader analysis. The format is cell-based.

Series [17] has as its system CWR22R. Description: Induction of apoptosis in human 22Rv1 cells assessed as increase in cleaved caspase-3 expression incubated for 24 hrs by Western blot analysis. The note with it: dose 1-30 nM. The format is functional, cell-based.
For series [18], the system named is LNCaP. The series can be described thus: Induction of apoptosis in human LNCaP cells assessed as increase in cleaved PARP expression incubated for 24 hrs by Western blot analysis. The format is functional, cell-based. The note with it: dose 1-100 nM.
The target of series [19] is T1, Protein cereblon/Androgen receptor. The series can be described thus: PROTAC activity at CRBN/AR in human Enzalutamide-resistant LNCaP cells assessed as induction of androgen receptor degradation at 1 to 300 nM by Western blot analysis. Type of series: cell-based. The note with it: dose 1-300 nM.
Target sequence in this assay (Q96SW2 whole entry, looked up, one chain of several): as the sequence (Q96SW2 whole entry, looked up, one chain of several) above
Series [20] concerns Protein cereblon/Androgen receptor (Homo sapiens), P10275+Q96SW2 [UNDEFINED MUTATION]. Description: PROTAC activity at CRBN/Androgen receptor splice variant 7 in human Enzalutamide-resistant VCaP cells assessed as induction of AR-V7 degradation at 1 to 300 nM by Western blot analysis. The format is cell-based. The note with it: dose 1-300 nM.
Sequence of Protein cereblon/Androgen receptor (Homo sapiens), P10275+Q96SW2 [UNDEFINED MUTATION] (Q96SW2 whole entry, looked up, change not shown, one chain of several, canonical isoform): as the sequence (Q96SW2 whole entry, looked up, one chain of several) above
Series [21] can be described thus: AUC in male ICR mouse at 2 mg/kg, iv by LC-MS/MS analysis. Type of series: ADME, organism-based. As to conditions: in vivo.
Series [22] is described as follows: Cmax in male ICR mouse at 10 mg/kg, po by LC-MS/MS analysis. The note with it: in vivo. The format is ADME, organism-based.

Calls of active or inactive are those of the source. No cut-off for these calls is given here.

T2 sequence (P15170 whole entry, looked up): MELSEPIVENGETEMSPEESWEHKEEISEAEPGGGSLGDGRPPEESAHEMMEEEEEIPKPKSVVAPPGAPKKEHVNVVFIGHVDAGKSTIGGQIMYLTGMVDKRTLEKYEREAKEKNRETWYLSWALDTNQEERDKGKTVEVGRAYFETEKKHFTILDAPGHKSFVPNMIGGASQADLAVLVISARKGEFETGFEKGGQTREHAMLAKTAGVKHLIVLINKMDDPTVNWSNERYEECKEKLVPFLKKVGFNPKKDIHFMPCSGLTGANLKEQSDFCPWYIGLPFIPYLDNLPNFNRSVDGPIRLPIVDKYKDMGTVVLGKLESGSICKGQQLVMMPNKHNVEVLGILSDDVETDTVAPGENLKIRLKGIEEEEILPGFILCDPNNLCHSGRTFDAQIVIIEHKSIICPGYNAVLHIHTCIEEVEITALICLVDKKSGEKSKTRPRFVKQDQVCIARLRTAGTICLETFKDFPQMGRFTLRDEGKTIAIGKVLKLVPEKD
T2 sequence (Q96SW2 whole entry, looked up): as the sequence (Q96SW2 whole entry, looked up, one chain of several) above

What is called DC50 is the midpoint of the concentration-degradation curve. The Emax is the maximal effect, on the per cent scale that the assay sets. Broadly, the IC50 is the concentration that inhibits the measured activity by half. For orientation: AUC means concentration integrated over time. As usually defined, the Cmax is the peak of the concentration-time curve. For `COc1ccc(C(C)(C)c2cc(Cl)c(OCC3CCN(C(=O)CCCCCNc4ccc5c(c4)C(=O)N(C4CCC(=O)NC4=O)C5=O)CC3)c(C#N)c2)cc1` (stereo not drawn), the Activity in [1] was 75.2%; in [2], 56.3%; in [3], 20.1%; in series [4] it was 56.6%; in series [5] it was 98.1%; in [6], “Dose-dependent-effect”. Further, the Activity entry in series [8] was “Minimal_effect”; in [13] it was “Moderate_effect”; in [15], “Dose-dependent-effect”; in series [17], “Dose-dependent-effect”; in series [18], “Dose-dependent-effect”. Moreover, the 50% degradation concentration (DC50) in series [6] turned out to be 3.7 nM. Further, in series [7], the maximal effect (Emax) stood at 90%. Further, the result in series [9], in [10], in series [11] and in series [12] was inactive. Besides, the “Ratio IC50” value in series [14] was 315. Further, the IC50 in series [16] turned out to be 3.2 nM. Further, the outcome in series [19] and in series [20] was Active. Besides, the area under the curve (AUC) in [21] stood at 1850 ng·h/mL. The compound also displayed a maximum concentration (Cmax) in series [22] of 206 ng/mL.

(Values after ChEMBL document CHEMBL6177998, “Rational Design of Dual Degraders by Incorporating Molecular Glue Structural Features into PROTAC Degraders” (J Med Chem, 2025).)
